# According to patent US20250275995A1, “NICOTINAMIDE RIBOSIDE DOSAGE REGIMEN FOR TREATING PARKINSON'S DISEASE” (VESTLANDETS INNOVASJONSSELSKAP AS (VIS), priority 2022, published 2025):
# Assays:
# Assay type in all cases: in vivo, human
# [1] = test system: individuals with newly diagnosed, drug-naïve PD; assay: NADPARK phase I trial: tolerability of NR therapy (1000 mg per day, 30 days) in PD
# Experimental: The present inventors completed a phase I randomized, double blinded trial, aiming to assess the tolerability, cerebral bioavailability and molecular effects of NR therapy in PD. A total of 30 individuals with newly diagnosed, drug-naïve PD were randomized to NR 500 mg×2/day or placebo for 30 days (Cell Metab. 2022 Mar. 1; 34(3):396-407.e6).
# NR is well-tolerated. […] NR achieves brain penetration. […] While a significant NR-induced increase in cerebral NAD levels was detected at the group level, this effect was not uniform at the individual level.
# [2] = test system: cerebral NAD levels; assay: NADPARK: cerebral NAD levels by 31P-MRS
# Experimental: A-C: 31P-MRS was performed at baseline (v1) and after 30 days of treatment (v2). A: exemplary data from one subject showing voxel position. Spectra were acquired for each grid position. B (top): average processed spectra from multiple voxels (black) and the model fit (red). B (bottom): the model fit is composed of the convolution of all spectral contributions of a simulated dataset fitted to the experimental data. […] PCr: phosphocreatine. C: comparison of cerebral NAD levels in the placebo (PL) and NR groups at baseline (v1) and visit-2 (v2). […] Individual subjects are indicated by dots. Connecting lines show the change between v1 and v2. The black points and lines show the mean of each group. […] D: FDG-PET data from all subjects in the NR-group, showing the mean NR-Related Pattern (NRRP, top panel), PD-related pattern (PRDP, middle panel), and the overlap of the two (bottom panel). NR partially ameliorates the striatal and thalamic hypermetabolism of PD. E: Between visit changes showing increased NRRP expression in the NR versus the placebo group. […]
# NR is well-tolerated. […] While a significant NR-induced increase in cerebral NAD levels was detected at the group level, this effect was not uniform at the individual level.
# Cerebral NAD levels, such as NAD/α-ATP-α molar ratios, can be calculated by using ^31P spectroscopy data from magnetic resonance imaging and spectroscopy (MRI/S) e.g., as shown in FIG. 1B. […] For instance, an anatomical T1-weighted image with the following sequence parameters can be acquired to aid positioning of the ^31P-imaging slab: MPRAGE 3D T1-weighted sagittal volume, TE/TR/TI=2.26 ms/2.4 s/900 ms, acquisition matrix=256×256×192, FOV=256×256×192 mm3, 200 Hz/px readout bandwidth, flip angle=8 degrees and total acquisition duration of 5.6 minutes. ^31P spectroscopy data can then be acquired using a 3D chemical shift imaging (CSI) FID sequence with WALTZ4 1H decoupling and continuous wave nuclear Overhauser effect (NOE) enhancement (Peeters et al., NMR Biomed. 2019; 34: e4169). […]
# [3] = test system: NAD metabolome; assay: NR-SAFE: NAD and glutathione metabolites in frozen whole blood (NADMed assay)
# Experimental: Analysis was carried out by NADMed (Helsinki, Finland; www.nadmed.com). NAD and glutathione metabolites were extracted from frozen blood in a single step using a proprietary extraction procedure, and each metabolite was measured individually using optimized cyclic enzymatic assays with colorimetric detection.
# [4] = NADMed assay, V1 to V7, 3000 mg NR daily
smiles,measurement,setting,value
"NC(=O)c1ccc[n+]([C@@H]2O[C@H](CO)[C@@H](O)[C@H]2O)c1 [NR, nicotinamide riboside]",serum homocysteine levels,"[1]; NR 1000 mg daily, Phase I study",no change in serum homocysteine levels
same,"compliance, tolerability, toxicity","[1]; NR 1000 mg per day, 30 days, PD","excellent compliance, tolerability and no signs of toxicity or adverse side effects"
same,increase in cerebral NAD-levels,"[2]; 1000 mg NR, treatment group, mean (SD=20%)",38%
same,patients with no evidence of cerebral NAD response,"[2]; NR 1000 mg per day, 30 days",three
same,change in cerebral NAD levels (31P-MRS),"[2]; NR 1000 mg per day, baseline vs 30 days, NR group",highly significant (paired t-test: P=0.016) increase in cerebral NAD levels
same,increase in whole blood NAD^+ levels,"[3]; 3000 mg NR daily, 4 weeks",~3.7 fold
same,"increase in whole blood NAD^+ levels, range","[3]; 3000 mg NR daily, 4 weeks, range across individuals",1.8-5.8 fold
same,increase in blood NAD^+ levels (maximum),"[3]; 3000 mg NR daily, 4 weeks, summary statement",up to 5 fold
same,whole blood GSH and GSSG,[3]; [4],remained unchanged
same,whole blood NADH level,[3]; [4],marked increase
same,whole blood NADP^+ and total NADP levels,[3]; [4],increase in NADP^+ and total NADP levels
same,whole blood NADP^+/NADPH ratio,[3]; [4],trend towards increased NADP^+/NADPH ratio
same,whole blood NAD^+ level,[3]; [4],marked increase
same,whole blood NAD^+/NADH ratio,[3]; [4],overall elevated NAD^+/NADH ratio
